{"source": "patent US10588316B2", "about": "(priority 2015, dated 2020)", "key": {"wheat scab [1]": {"tested_on": "wheat scab", "format": "in vivo", "details": "80 g of 50% of Carbendazim Wettable Powder"}, "wheat scab [2]": {"tested_on": "wheat scab", "format": "in vivo", "details": "Carbendazim 40 g a.i. per mu"}, "leaf blight": {"tested_on": "leaf blight", "set-up": "species or system wheat", "details": "in vivo"}, "Fusarium graminearum": {"tested_on": "Fusarium graminearum", "experiment": "microbe, parasite or virus in culture", "format": "cell-based", "details": "Fusarium graminearum, read-out: Median Effective Concentration (EC50) for Growth Inhibition"}, "[3]": {"set-up": "species or system wheat", "details": "in vivo"}, "wheat scab [4]": {"tested_on": "wheat scab", "format": "in vivo", "details": "Carbendazim 40 g a.i. per mu, control agent"}, "wheat scab [5]": {"tested_on": "wheat scab", "format": "in vivo", "details": "Carbendazim 50 g a.i."}, "rust": {"tested_on": "rust", "set-up": "species or system wheat", "details": "in vivo"}, "Fusarium asiaticum": {"tested_on": "Fusarium asiaticum", "experiment": "microbe, parasite or virus in culture", "format": "cell-based", "details": "Fusarium asiaticum, read-out: Median Effective Concentration (EC50) for Growth Inhibition"}}, "note": "Like-named read-outs stand apart in the source and are kept apart here."}
{"smiles": "COC(=O)Nc1nc2ccccc2[nH]1", "note": "[Carbendazim, carbendazim]", "values": [{"measurement": "Disease Index Prevention Effect % Head Blight", "setting": "wheat scab [1]", "result": 64.6, "unit": "%"}, {"measurement": "Disease Index Prevention Effect % Head Blight", "setting": "wheat scab [2]", "result": 38.60, "unit": "%"}, {"measurement": "Disease Index Prevention Effect % Leaf Blight", "setting": "leaf blight", "result": 48.50, "unit": "%"}, {"measurement": "EC50", "setting": "Fusarium graminearum", "result": 0.45, "unit": "µg/mL"}, {"measurement": "Thousand Kernel Weight", "setting": "[3]", "result": 41.60, "unit": "g"}, {"measurement": "Disease Index Prevention Effect % Actual Prevention Effect", "setting": "wheat scab [4]", "result": 67.5, "unit": "%"}, {"measurement": "Disease Index Prevention Effect % Head Blight", "setting": "wheat scab [5]", "result": 49.04, "unit": "%"}, {"measurement": "Disease Index Prevention Effect % Rust", "setting": "rust", "result": 61.20, "unit": "%"}, {"measurement": "EC50", "setting": "Fusarium asiaticum", "result": 0.45, "unit": "µg/mL"}]}
